Tested on: Alternaria solani
Assay: Efficacy against early blight of tomato caused by Alternaria solani (Alteso P1), greenhouse
Format: in vivo
Conditions: Comparative Example 1, potted tomato plants, visual rating after 5 days
Protocol: The active compounds were prepared separately or jointly as a stock solution comprising 25 mg of active compound which was made up to 10 ml using a mixture of acetone and/or DMSO and the emulsifier Wettol EM 31 (wetting agent having emulsifying and dispersing action based on ethoxylated alkylphenols) in a volume ratio of solvent/emulsifier of 99:1. The mixture was then made up to 100 ml with water. This stock solution was diluted with the solvent/emulsifier/water mixture described to give the concentration of active compounds stated below. Leaves of potted tomato plants were sprayed to runoff point with an aqueous suspension having the active compound concentration stated below. The next day, the leaves were inoculated with an aqueous spore suspension of Alternaria solani in a 2% biomalt solution. The plants were then placed in a water vapor-saturated chamber at temperatures between 20 and 22° C. After 5 days, the disease on the untreated but infected control plants had developed to such an extent that the infection could be determined visually in %. […]

| SMILES | Infection in % at 63 ppm for Alteso P1 [%] |
| --- | --- |
| COc1ccc(C2(Cn3cncn3)OC2c2ccccc2Cl)cc1 (centres unmarked) [As described in EP-A 0 196 038] | 90 |
| COc1ccc([C@@]2(Cn3cncn3)O[C@@H]2c2ccccc2Cl)c(F)c1 (racemic) [Compound 14.10] | 5 |
